In patent publication US7238689B2, “Isoxazoline derivative and herbicide comprising the same as active ingredient” (Ihara Chemical Industry Co., Ltd., priority 2001, dated 2007):

Tests used:
Type in all cases: in vivo
Set-up in all cases: scale not given here
[1] = tested on: Echinochloa crus-galli (L.) Beauv. var. crusgalli; assay: Herbicidal effect by upland field soil treatment; details: active ingredient 1000 g/ha, examined at 21st day from treatment
Text: (§1) An upland field soil was filled in a plastic pot of 80 cm^2. Seeds of Echinochloa crus-galli (L.) Beauv. var. crusgalli and Setaria viridis (L.) Beauv. were sowed, followed by covering with the same soil. […] Then, breeding was made in a greenhouse, and the herbicidal effect of each wettable powder was examined at the 21st day from the treatment in accordance with the standard shown in Table 21.

[2] = tested on: Setaria viridis (L.) Beauv.; assay: Herbicidal effect by upland field soil treatment; details: active ingredient 1000 g/ha, examined at 21st day from treatment
Text: as §1

[3] = tested on: Monochoria vaginalis (Murm. f.) Presl var. plantaginea (Roxb.) Solms-Laub.; assay: Herbicidal effect by paddy field soil treatment; details: wettable powder, active ingredient 1000 g/ha, examined at the 21st day from the treatment
Experimental: (§2) A paddy field soil was filled in a plastic pot of 100 cm^2 and subjected to puddling. Then, seeds of Echinochloa oryzicola Vasing and Monochoria vaginalis (Murm. f.) Presl var. plantaginea (Roxb.) Solms-Laub. were sowed and water was filled in a depth of 3 cm. Next day, wettable powders produced in accordance with the Formulation 1 were diluted with water and dropped on the water surface. The application amount of each wettable powder was 1,000 g per 1 hectare in terms of the active ingredient. Then, breeding was made in a greenhouse, and the herbicidal effect of each wettable powder was examined at the 21st day from the treatment in accordance with the standard shown in Table 21.

[4] = tested on: Echinochloa oryzicola Vasing; assay: Herbicidal effect by paddy field soil treatment; details: wettable powder, active ingredient 1000 g/ha, examined at the 21st day from the treatment
Experimental: as §2

CC1(C)CC(S(=O)(=O)Cc2c(Cl)sc(Cl)c2Cl)=NO1 [2-0006]
herbicidal effect (index per standard of Table 21), Echinochloa curs-galli (L.) Beauv. Var. crus-galli [1]: 5
herbicidal effect (index per standard of Table 21), Setaria viridis (L.) Beauv. [2]: 4
Herbicidal effect index, Monochoria vaginalis (Burm. F.) Presl var. plantaginea (Roxb.) Solms-Laub. [3]: 5
Herbicidal effect index, Echinochloa oryzicola Vasing [4]: 5

CNC(=O)c1c(Cl)sc(Cl)c1CS(=O)(=O)C1=NOC(C)(C)C1 [2-0012]
herbicidal effect (index per standard of Table 21), Echinochloa curs-galli (L.) Beauv. Var. crus-galli [1]: 5
herbicidal effect (index per standard of Table 21), Setaria viridis (L.) Beauv. [2]: 5
Herbicidal effect index, Monochoria vaginalis (Burm. F.) Presl var. plantaginea (Roxb.) Solms-Laub. [3]: 5
Herbicidal effect index, Echinochloa oryzicola Vasing [4]: 5

CC1(C)CC(S(=O)(=O)Cc2c(C(F)(F)F)n[nH]c2Cl)=NO1 [3-0034]
herbicidal effect (index per standard of Table 21), Echinochloa curs-galli (L.) Beauv. Var. crus-galli [1]: 5
herbicidal effect (index per standard of Table 21), Setaria viridis (L.) Beauv. [2]: 5
Herbicidal effect index, Monochoria vaginalis (Burm. F.) Presl var. plantaginea (Roxb.) Solms-Laub. [3]: 5
Herbicidal effect index, Echinochloa oryzicola Vasing [4]: 5

Cn1nc(Cl)c(CS(=O)(=O)C2=NOC(C)(C)C2)c1C(F)(F)F [3-0040]
herbicidal effect (index per standard of Table 21), Echinochloa curs-galli (L.) Beauv. Var. crus-galli [1]: 5
herbicidal effect (index per standard of Table 21), Setaria viridis (L.) Beauv. [2]: 5
Herbicidal effect index, Monochoria vaginalis (Burm. F.) Presl var. plantaginea (Roxb.) Solms-Laub. [3]: 5
Herbicidal effect index, Echinochloa oryzicola Vasing [4]: 5

Cn1nc(C(F)(F)F)c(CS(=O)(=O)C2=NOC(C)(C)C2)c1F [3-0041]
herbicidal effect (index per standard of Table 21), Echinochloa curs-galli (L.) Beauv. Var. crus-galli [1]: 5
herbicidal effect (index per standard of Table 21), Setaria viridis (L.) Beauv. [2]: 5
Herbicidal effect index, Monochoria vaginalis (Burm. F.) Presl var. plantaginea (Roxb.) Solms-Laub. [3]: 5
Herbicidal effect index, Echinochloa oryzicola Vasing [4]: 5

Cn1nc(C(F)(F)F)c(CS(=O)(=O)C2=NOC(C)(C)C2)c1OC(C)(C)C [3-0047]
herbicidal effect (index per standard of Table 21), Echinochloa curs-galli (L.) Beauv. Var. crus-galli [1]: 5
herbicidal effect (index per standard of Table 21), Setaria viridis (L.) Beauv. [2]: 5
Herbicidal effect index, Monochoria vaginalis (Burm. F.) Presl var. plantaginea (Roxb.) Solms-Laub. [3]: 5
Herbicidal effect index, Echinochloa oryzicola Vasing [4]: 5

Cn1nc(C(F)(F)F)c(CS(=O)(=O)C2=NOC(C)(C)C2)c1OC(F)F [3-0054]
herbicidal effect (index per standard of Table 21), Echinochloa curs-galli (L.) Beauv. Var. crus-galli [1]: 5
herbicidal effect (index per standard of Table 21), Setaria viridis (L.) Beauv. [2]: 5
Herbicidal effect index, Monochoria vaginalis (Burm. F.) Presl var. plantaginea (Roxb.) Solms-Laub. [3]: 5
Herbicidal effect index, Echinochloa oryzicola Vasing [4]: 5

Cn1nc(C(F)(F)F)c(CS(=O)(=O)C2=NOC(C)(C)C2)c1OCc1ccccc1 [3-0059]
herbicidal effect (index per standard of Table 21), Echinochloa curs-galli (L.) Beauv. Var. crus-galli [1]: 5
herbicidal effect (index per standard of Table 21), Setaria viridis (L.) Beauv. [2]: 5
Herbicidal effect index, Monochoria vaginalis (Burm. F.) Presl var. plantaginea (Roxb.) Solms-Laub. [3]: 5
Herbicidal effect index, Echinochloa oryzicola Vasing [4]: 5

Cn1nc(C(F)(F)F)c(CS(=O)(=O)C2=NOC(C)(C)C2)c1Oc1ccccc1 [3-0060]
herbicidal effect (index per standard of Table 21), Echinochloa curs-galli (L.) Beauv. Var. crus-galli [1]: 5
herbicidal effect (index per standard of Table 21), Setaria viridis (L.) Beauv. [2]: 5
Herbicidal effect index, Monochoria vaginalis (Burm. F.) Presl var. plantaginea (Roxb.) Solms-Laub. [3]: 5
Herbicidal effect index, Echinochloa oryzicola Vasing [4]: 5

Cn1nc(C(F)(F)F)c(CS(=O)(=O)C2=NOC(C)(C)C2)c1S(=O)(=O)c1ccccc1 [3-0070]
herbicidal effect (index per standard of Table 21), Echinochloa curs-galli (L.) Beauv. Var. crus-galli [1]: 4
herbicidal effect (index per standard of Table 21), Setaria viridis (L.) Beauv. [2]: 4
Herbicidal effect index, Monochoria vaginalis (Burm. F.) Presl var. plantaginea (Roxb.) Solms-Laub. [3]: 5
Herbicidal effect index, Echinochloa oryzicola Vasing [4]: 5

Cn1nc(-c2ccccc2)c(CS(=O)(=O)C2=NOC(C)(C)C2)c1Cl [3-0072]
herbicidal effect (index per standard of Table 21), Echinochloa curs-galli (L.) Beauv. Var. crus-galli [1]: 5
herbicidal effect (index per standard of Table 21), Setaria viridis (L.) Beauv. [2]: 5
Herbicidal effect index, Monochoria vaginalis (Burm. F.) Presl var. plantaginea (Roxb.) Solms-Laub. [3]: 5
Herbicidal effect index, Echinochloa oryzicola Vasing [4]: 5

CC1(C)CC(S(=O)(=O)Cc2c(C(F)(F)F)nn(Cc3ccccc3)c2Cl)=NO1 [3-0087]
herbicidal effect (index per standard of Table 21), Echinochloa curs-galli (L.) Beauv. Var. crus-galli [1]: 5
herbicidal effect (index per standard of Table 21), Setaria viridis (L.) Beauv. [2]: 5
Herbicidal effect index, Monochoria vaginalis (Burm. F.) Presl var. plantaginea (Roxb.) Solms-Laub. [3]: 5
Herbicidal effect index, Echinochloa oryzicola Vasing [4]: 5

CC1(C)CC(S(=O)(=O)Cc2c(Cl)nn(Cc3ccccc3)c2C(F)(F)F)=NO1 [3-0088]
herbicidal effect (index per standard of Table 21), Echinochloa curs-galli (L.) Beauv. Var. crus-galli [1]: 5
herbicidal effect (index per standard of Table 21), Setaria viridis (L.) Beauv. [2]: 4
Herbicidal effect index, Monochoria vaginalis (Burm. F.) Presl var. plantaginea (Roxb.) Solms-Laub. [3]: 5
Herbicidal effect index, Echinochloa oryzicola Vasing [4]: 5

CC1(C)CC(S(=O)(=O)Cc2c(C(F)(F)F)nn(C3CCCCC3)c2Cl)=NO1 [3-0091]
herbicidal effect (index per standard of Table 21), Echinochloa curs-galli (L.) Beauv. Var. crus-galli [1]: 5
herbicidal effect (index per standard of Table 21), Setaria viridis (L.) Beauv. [2]: 5
Herbicidal effect index, Monochoria vaginalis (Burm. F.) Presl var. plantaginea (Roxb.) Solms-Laub. [3]: 5
Herbicidal effect index, Echinochloa oryzicola Vasing [4]: 5

CC1(C)CC(S(=O)(=O)Cc2c(C(F)(F)F)nn(CC(F)F)c2Cl)=NO1 [3-0114]
herbicidal effect (index per standard of Table 21), Echinochloa curs-galli (L.) Beauv. Var. crus-galli [1]: 5
herbicidal effect (index per standard of Table 21), Setaria viridis (L.) Beauv. [2]: 5
Herbicidal effect index, Monochoria vaginalis (Burm. F.) Presl var. plantaginea (Roxb.) Solms-Laub. [3]: 5
Herbicidal effect index, Echinochloa oryzicola Vasing [4]: 5

CC1(C)CC(S(=O)(=O)Cc2c(Cl)nn(CC(F)(F)F)c2C(F)(F)F)=NO1 [3-0117]
herbicidal effect (index per standard of Table 21), Echinochloa curs-galli (L.) Beauv. Var. crus-galli [1]: 5
herbicidal effect (index per standard of Table 21), Setaria viridis (L.) Beauv. [2]: 5
Herbicidal effect index, Monochoria vaginalis (Burm. F.) Presl var. plantaginea (Roxb.) Solms-Laub. [3]: 5
Herbicidal effect index, Echinochloa oryzicola Vasing [4]: 5

CCOCn1nc(Cl)c(CS(=O)(=O)C2=NOC(C)(C)C2)c1C(F)(F)F [3-0121]
herbicidal effect (index per standard of Table 21), Echinochloa curs-galli (L.) Beauv. Var. crus-galli [1]: 5
herbicidal effect (index per standard of Table 21), Setaria viridis (L.) Beauv. [2]: 5
Herbicidal effect index, Monochoria vaginalis (Burm. F.) Presl var. plantaginea (Roxb.) Solms-Laub. [3]: 5
Herbicidal effect index, Echinochloa oryzicola Vasing [4]: 5

COCCn1nc(C(F)(F)F)c(CS(=O)(=O)C2=NOC(C)(C)C2)c1Cl [3-0124]
herbicidal effect (index per standard of Table 21), Echinochloa curs-galli (L.) Beauv. Var. crus-galli [1]: 5
herbicidal effect (index per standard of Table 21), Setaria viridis (L.) Beauv. [2]: 5
Herbicidal effect index, Monochoria vaginalis (Burm. F.) Presl var. plantaginea (Roxb.) Solms-Laub. [3]: 5
Herbicidal effect index, Echinochloa oryzicola Vasing [4]: 5

COCCn1nc(Cl)c(CS(=O)(=O)C2=NOC(C)(C)C2)c1C(F)(F)F [3-0125]
herbicidal effect (index per standard of Table 21), Echinochloa curs-galli (L.) Beauv. Var. crus-galli [1]: 5
herbicidal effect (index per standard of Table 21), Setaria viridis (L.) Beauv. [2]: 5
Herbicidal effect index, Monochoria vaginalis (Burm. F.) Presl var. plantaginea (Roxb.) Solms-Laub. [3]: 5
Herbicidal effect index, Echinochloa oryzicola Vasing [4]: 5

CCOCCn1nc(C(F)(F)F)c(CS(=O)(=O)C2=NOC(C)(C)C2)c1Cl [3-0126]
herbicidal effect (index per standard of Table 21), Echinochloa curs-galli (L.) Beauv. Var. crus-galli [1]: 5
herbicidal effect (index per standard of Table 21), Setaria viridis (L.) Beauv. [2]: 5
Herbicidal effect index, Monochoria vaginalis (Burm. F.) Presl var. plantaginea (Roxb.) Solms-Laub. [3]: 5
Herbicidal effect index, Echinochloa oryzicola Vasing [4]: 5

CCOCCn1nc(Cl)c(CS(=O)(=O)C2=NOC(C)(C)C2)c1C(F)(F)F [3-0127]
herbicidal effect (index per standard of Table 21), Echinochloa curs-galli (L.) Beauv. Var. crus-galli [1]: 5
herbicidal effect (index per standard of Table 21), Setaria viridis (L.) Beauv. [2]: 5
Herbicidal effect index, Monochoria vaginalis (Burm. F.) Presl var. plantaginea (Roxb.) Solms-Laub. [3]: 5
Herbicidal effect index, Echinochloa oryzicola Vasing [4]: 5

CSCn1nc(C(F)(F)F)c(CS(=O)(=O)C2=NOC(C)(C)C2)c1Cl [3-0128]
herbicidal effect (index per standard of Table 21), Echinochloa curs-galli (L.) Beauv. Var. crus-galli [1]: 5
herbicidal effect (index per standard of Table 21), Setaria viridis (L.) Beauv. [2]: 5
Herbicidal effect index, Monochoria vaginalis (Burm. F.) Presl var. plantaginea (Roxb.) Solms-Laub. [3]: 5
Herbicidal effect index, Echinochloa oryzicola Vasing [4]: 5

CSCn1nc(Cl)c(CS(=O)(=O)C2=NOC(C)(C)C2)c1C(F)(F)F [3-0129]
herbicidal effect (index per standard of Table 21), Echinochloa curs-galli (L.) Beauv. Var. crus-galli [1]: 5
herbicidal effect (index per standard of Table 21), Setaria viridis (L.) Beauv. [2]: 5
Herbicidal effect index, Monochoria vaginalis (Burm. F.) Presl var. plantaginea (Roxb.) Solms-Laub. [3]: 5
Herbicidal effect index, Echinochloa oryzicola Vasing [4]: 5

CC1(C)CC(S(=O)(=O)Cc2c(C(F)(F)F)nn(CS(C)(=O)=O)c2Cl)=NO1 [3-0130]
herbicidal effect (index per standard of Table 21), Echinochloa curs-galli (L.) Beauv. Var. crus-galli [1]: 5
herbicidal effect (index per standard of Table 21), Setaria viridis (L.) Beauv. [2]: 5
Herbicidal effect index, Monochoria vaginalis (Burm. F.) Presl var. plantaginea (Roxb.) Solms-Laub. [3]: 5
Herbicidal effect index, Echinochloa oryzicola Vasing [4]: 5

CC1(C)CC(S(=O)(=O)Cc2c(Cl)nn(CS(C)(=O)=O)c2C(F)(F)F)=NO1 [3-0131]
herbicidal effect (index per standard of Table 21), Echinochloa curs-galli (L.) Beauv. Var. crus-galli [1]: 5
herbicidal effect (index per standard of Table 21), Setaria viridis (L.) Beauv. [2]: 5
Herbicidal effect index, Monochoria vaginalis (Burm. F.) Presl var. plantaginea (Roxb.) Solms-Laub. [3]: 5
Herbicidal effect index, Echinochloa oryzicola Vasing [4]: 5

CC1(C)CC(S(=O)(=O)Cc2c(C(F)(F)F)nn(CC#N)c2Cl)=NO1 [3-0134]
herbicidal effect (index per standard of Table 21), Echinochloa curs-galli (L.) Beauv. Var. crus-galli [1]: 5
herbicidal effect (index per standard of Table 21), Setaria viridis (L.) Beauv. [2]: 5
Herbicidal effect index, Monochoria vaginalis (Burm. F.) Presl var. plantaginea (Roxb.) Solms-Laub. [3]: 5
Herbicidal effect index, Echinochloa oryzicola Vasing [4]: 5

CC1(C)CC(S(=O)(=O)Cc2c(Cl)nn(CC#N)c2C(F)(F)F)=NO1 [3-0135]
herbicidal effect (index per standard of Table 21), Echinochloa curs-galli (L.) Beauv. Var. crus-galli [1]: 5
herbicidal effect (index per standard of Table 21), Setaria viridis (L.) Beauv. [2]: 5
Herbicidal effect index, Monochoria vaginalis (Burm. F.) Presl var. plantaginea (Roxb.) Solms-Laub. [3]: 5
Herbicidal effect index, Echinochloa oryzicola Vasing [4]: 5

CCOC(=O)Cn1nc(Cl)c(CS(=O)(=O)C2=NOC(C)(C)C2)c1C(F)(F)F [3-0137]
herbicidal effect (index per standard of Table 21), Echinochloa curs-galli (L.) Beauv. Var. crus-galli [1]: 5
herbicidal effect (index per standard of Table 21), Setaria viridis (L.) Beauv. [2]: 5
Herbicidal effect index, Monochoria vaginalis (Burm. F.) Presl var. plantaginea (Roxb.) Solms-Laub. [3]: 5
Herbicidal effect index, Echinochloa oryzicola Vasing [4]: 5
